These results are taken from patent US9980894B2, “Cosmetic compositions comprising hyaluronan biosynthesis promoting agents” (Symrise AG, priority 2012, dated 2018).

The test system of test [1] is Normal Human Dermal Fibroblasts (NHDF). Nature of the test: Cellular in vitro hyaluronan assay on normal human dermal fibroblasts (hyaluronic acid ELISA). The test is classed as cell-based. To be noted: for Effect on hyaluronan production of dermal fibroblasts (in words): in vitro; for Mean hyaluron stimulation vs. control: 16 h; for Mean hyaluronan stimulation compared with positive control TGF-b1: cassione 0.25 μM, [6]-paradol 0.025 μM versus TGF-b1 1 ng/ml. As to the method:
(§1) NHDF are seeded into a 24 well plate at a concentration of 1.5×10^4 cells/well. Cells are incubated at 37° C. and 5% CO2 in fibroblast medium containing 10% fetal bovine serum (FBS) until they are 70-80% confluent. Then the medium is withdrawn, cells are washed with PBS and the test compounds dissolved in fibroblast medium without FBS are added. After incubation for 16 h in the presence of the test compounds, the culture medium is collected and hyaluronan is determined by a hyaluronic acid ELISA detection kit (Corgenix) which is performed according to the supplier instructions. The stimulation of the hyaluronan biosynthesis in the presence of the test compounds is calculated according to the following equation: Hyaluronan stimulation [%]=([…]×100)−100 with • HAcontrol=hyaluronan content in ng/ml of the medium from cells treated with control • HAtest compound=hyaluronan content in ng/ml of the medium from cells treated with test compound

Test [2] concerns Normal Human Epidermal Keratinocytes (NHEK). Put plainly: Cellular in vitro hyaluronan assay on normal human epidermal keratinocytes (hyaluronic acid ELISA). The test is classed as cell-based. The settings on record: for Mean hyaluronan stimulation, fold less than that of the positive control retinol: compounds at 0.25 μM versus retinol at 0.1 μM; for Effect on hyaluronan production of epidermal keratinocytes (in words): in vitro; for Mean hyaluron stimulation vs. control: 16 h. As to the method:
as §1, with “NHEK” for “NHDF”, “2.5×10^4” for “1.5×10^4”, “keratinocyte” for “fibroblast”, “medium” for “medium containing 10% fetal bovine serum (FBS)”, “medium” for “medium without FBS”

A further test has as its system B16 melanoma cell line. To be noted: cited from earlier work.
Another test deals with ex vivo human skin. Put plainly: Hyaluronan assay on ex vivo human skin (Alcain blue staining, image analysis). In kind it is cell-based. An excerpt:
Human skin obtained from plastic surgery is cut into pieces of approximately 7×3 mm (diameter×thickness). 6 skin samples are used for each treatment. The skin samples are placed on a cotton pad soaked with culture medium (modified Williams'E medium). Control and hydrodispersion gels (as described in more detail below) without (=placebo) and with the test compound, respectively, are applied topically on day 0 and the application is renewed on day 1. On day 2, skin samples are fixed, histological sections are prepared and subsequent histochemically stained by Alcain blue. After that, pictures are taken from each section and dermal and epidermal hyaluronan is quantified by image analysis of a selected region of interest. To do so, the histochemical staining is divided in three different color channels with an algorithm specific for Alcain blue staining and the distribution and intensity of the blue colour channel which is specific for hyaluronan is analysed. Hyaluronan stimulation [%]=([…]×100)−100 with • HAcontrol=hyaluronan score of the skin sample treated with control • HAtest compound=hyaluron score of the skin sample treated with test compound
The hydrodispersion gels used had the composition as set out in Table 4: […]

Setting [3] is: listed as compound of formula IV.
Where [4] appears, read: 0.0001% [6]-paradol containing gel versus placebo gel.
The mark [5] stands for this setting: 0.0001 % in hydrodispersion gel, topical on day 0 and day 1, analysed day 2.

“Also recorded” adds a separate entry of the source. Read-outs that look alike come from different tables or passages of the source.

On to `COc1cc(CCC(=O)c2ccc(O)cc2)ccc1O` [Compound of formula IV, 3-(4-Hydroxy-3-methoxyphenyl)-1-(4-hydroxyphenyl)-1-propanone], for which the results for the “Effect on hyaluronan production of dermal fibroblasts (in words)” value (shortened to “Effect … of dermal fibroblasts (in words)”) in test [1] (setting [3]) and in test [1] (listed as formula IV) were “no stimulatory activity” and “no direct stimulating effect on dermal fibroblasts”, respectively. In addition, the “Mean hyaluron stimulation vs. control” value was −5.5 ± 2.5% in test [1] (test concentration 0.25 μM) and 50.5 ± 26.5% in test [2] (test concentration 0.25 μM). The “Mean hyaluronan stimulation, fold less than that of the positive control retinol” value in test [2] came out at 1.4 fold. The entries for the “Effect on hyaluronan production of epidermal keratinocytes (in words)” value (“Effect … of epidermal keratinocytes (in words)” for short) in test [2] (setting [3]) and in test [2] (listed as formula IV) were “enhance the hyaluronan production” and “powerfully upregulates HA synthesis”, respectively.

Take “TGF-b1: Transforming growth factor (TGF)-beta1, positive control known to increase HA synthesis in dermal fibroblasts”: the figures for the “Mean hyaluron stimulation vs. control” value in test [1] (test concentration 1 ng/ml) and in test [2] (test concentration 1 ng/ml) were 39.7 ± 13.9% and −31.0%, respectively. Moreover, the “Effect … of epidermal keratinocytes (in words)” value in test [2] is “no stimulatory activity”.

As for `CC(=O)CCc1ccc2c(c1)OCO2` [Cassione, 4-(3,4-methylendioxyphenyl)-2-butanone], in test [1], the “Mean hyaluronan stimulation compared with positive control TGF-b1” value is listed as “comparable”. Further, in test [1], the “Effect … of dermal fibroblasts (in words)” value was “enhance the hyaluronan production; also recorded: potently enhance”. Moreover, the “Mean hyaluron stimulation vs. control” value was determined as 41.0 ± 6.0% in test [1] (test concentration 0.25 μM) and 37.0 ± 8.0% in test [2] (test concentration 0.25 μM). In addition, the “Mean hyaluronan stimulation, fold less than that of the positive control retinol” value in test [2] amounted to 1.9 fold. In test [2], the “Effect … of epidermal keratinocytes (in words)” value is listed as “enhance the hyaluronan production; also recorded: potently enhance”. Moreover, the “inhibition (skin lightening, in vitro efficacy)” value in the test on B16 melanoma cell line (26 μM (5 μg/ml)) was 15%; in the test on B16 melanoma cell line (520 μM (100 μg/ml)), 87%.

Regarding `CC1=C(/C=C/C(C)=C/C=C/C(C)=C/CO)C(C)(C)CCC1` [Retinol, reference compound], in test [1], the “Effect … of dermal fibroblasts (in words)” value was “no stimulatory activity”. For the same compound, the “Mean hyaluron stimulation vs. control” value in test [1] (test concentration 0.1 μM) is reported as 2.0%; in test [2] (test concentration 0.1 μM), 70.8 ± 33.3%.

As to `CC1=C(/C=C/C(C)=C/C=C/C(C)=C/C(=O)O)C(C)(C)CCC1` [Retinoic acid, reference compound], the figures for the “Mean hyaluron stimulation vs. control” value in test [1] (test concentration 0.1 μM) and in test [2] (test concentration 0.1 μM) were −13.0 ± 18.0% and 116.1 ± 37.3%, respectively.

Consider `CCCCCCCC(=O)CCc1ccc(O)c(OC)c1` [[6]-Paradol, Heptyl 4-hydroxy-3-methoxyphenethyl ketone], for which, in test [1], the “Mean hyaluronan stimulation compared with positive control TGF-b1” value is recorded as “comparable” and the “Effect … of dermal fibroblasts (in words)” value is “enhance the hyaluronan production; also recorded: potently stimulates”. Further, the “Mean hyaluron stimulation vs. control” value in test [1] (test concentration 0.025 μM) was found to be 38.0 ± 9.0%. Also, the “Effect … of epidermal keratinocytes (in words)” value in test [2] is listed as “no stimulatory activity; also recorded: without any direct stimulating effect on epidermal keratinocytes”. The “Mean hyaluron stimulation vs. control” value in test [2] (test concentration 0.025 μM) was −3.0 ± 3.0%. Further, in the test on ex vivo human skin (setting [4]), the “Mean HA stimulation versus placebo, dermal HA” value worked out at 250% and the “Mean HA stimulation versus placebo, epidermal HA” value turned out to be 124%. For the same compound, in the test on ex vivo human skin (setting [5]), the “Mean hyaluronan stimulation vs. control [%] Dermal” value is 124% and the “Mean hyaluronan stimulation vs. control [%] Epidermal” value was 51%. For the same compound, the “Effect on dermal and epidermal hyaluronan level of ex vivo human skin (in words)” value in the test on ex vivo human skin (0.0001%, 2 days of topical treatment) was “significantly stimulates”.

On to `COc1cc(CCC(C)=O)ccc1O` [Zingerone, 4-(4-hydroxy-3-methoxyphenyl)-2-butanone], for which the “Effect … of dermal fibroblasts (in words)” value in test [1] is given as “enhance the hyaluronan production; also recorded: increases HA biosynthesis”. Further, the entries for the “Mean hyaluron stimulation vs. control” value in test [1] (test concentration 0.25 μM) and in test [2] (test concentration 0.25 μM) were 15.0 ± 5.3% and 45.0 ± 24.7%, respectively. The “Mean hyaluronan stimulation, fold less than that of the positive control retinol” value in test [2] is on record as 1.6 fold. Also, the “Effect … of epidermal keratinocytes (in words)” value in test [2] is listed as “enhance the hyaluronan production; also recorded: more pronounced effect on epidermal keratinocytes”.
